Source: publication PMC8780828 (Viruses, 2021)
Where two headings read alike, the source gives them in different places.

Key:
in vitro = conditions: human, Caco-2, A-to-B Papp (cell batch quality control)
[1] = system: pseudovirus NL4-3ΔEnv-NanoLuc/SARS-CoV-2; test: SARS-CoV-2 pseudovirus assay with pre-treated 293T/ACE2 cells; type: cell-based; conditions: 293T/ACE2 cells pre-treated with compound 30 min before infection
[2] = system: pseudovirus NL4-3ΔEnv-NanoLuc/MERS-CoV; test: microbe, parasite or virus in culture; type: cell-based; conditions: Middle East respiratory syndrome-related coronavirus, Huh-7
[3] = target: SARS-CoV-2 spike S1 subunit protein (Severe acute respiratory syndrome coronavirus 2, UniProt P0DTC2); type: binding
[4] = system: pseudovirus NL4-3ΔEnv-NanoLuc/MERS-CoV; test: microbe, parasite or virus in culture; type: cell-based; conditions: Middle East respiratory syndrome-related coronavirus, MRC5
[5] = system: pseudovirus NL4-3ΔEnv-NanoLuc/SARS-CoV; test: microbe, parasite or virus in culture; type: cell-based; conditions: Severe acute respiratory syndrome coronavirus, A549-ACE2
[6] = system: control pseudovirus NL4-3.Luc.R-E-/A-MLV; test: Control pseudovirus A-MLV assay in 293T/ACE2 cells; type: cell-based, amphotropic murine leukemia virus (A-MLV); conditions: NL43, 293T/ACE2
[7] = system: SARS-CoV-2 (US_WA-1/2020); type: cell-based
in vivo = conditions: female, Sprague Dawley, rat; for MRT inf: MRT0-inf_obs
[8] = system: NL4-3ΔEnv-NanoLuc/SARS-CoV-2; test: organism not typed; type: cell-based; conditions: for IC50: read-out: IC50 (range over the three cell lines)
Trypsin = type: biochemical
β-lactamase = type: biochemical
[9] = rat, in vivo
[10] = system: pseudovirus NL4-3ΔEnv-NanoLuc/SARS-CoV-2; test: organism not typed; type: cell-based; conditions: A549-ACE2; n=3
[11] = system: pseudovirus NL4-3ΔEnv-NanoLuc/SARS-CoV; test: microbe, parasite or virus in culture; type: cell-based; conditions: Severe acute respiratory syndrome coronavirus, HT-1080
[12] = target: malate dehydrogenase (MDH); type: biochemical
[13] = system: pseudovirus NL4-3ΔEnv-NanoLuc/SARS-CoV-2; test: organism not typed; type: cell-based; conditions: HT-1080; n=3
[14] = system: pseudovirus NL4-3ΔEnv-NanoLuc/SARS-CoV-2; test: organism not typed; type: cell-based; conditions: 293T/ACE2
[15] = system: pseudovirus NL4-3ΔEnv-NanoLuc/SARS-CoV; test: microbe, parasite or virus in culture; type: cell-based; conditions: Severe acute respiratory syndrome coronavirus, 293T/ACE2; n=3
MERS-CoV pseudovirus = test: microbe, parasite or virus in culture; type: cell-based
[16] = female, Sprague Dawley, iv, 5 mg/kg

In the case of `C[C@H]1O[C@@H](O[C@H]2[C@@H](O)C[C@H](O[C@H]3[C@@H](O)C[C@H](O[C@H]4CC[C@@]5(C)[C@H](CC[C@@H]6[C@@H]5C[C@@H](O)[C@]5(C)[C@@H](C7=CC(=O)OC7)CC[C@]65O)C4)O[C@@H]3C)O[C@@H]2C)C[C@H](O)[C@@H]1O` [Digoxin, reference compound], the Papp A→B (in vitro) is reported as 0.34 ×10⁻⁶ cm/s.
`O=C(O)c1cccc(-c2ccc(/C=C3\SC(=S)N(CCc4ccccc4)C3=O)o2)c1` [NBCoV2] showed an IC50 [1] greater than 2000 nM, an IC50 [2] of 112 ± 7 nM and a kd [3] of 0.0251 s⁻¹. It also gave an IC50 [4] of 77 nM, an IC50 [5] of 111 ± 9 nM and an IC50 [6] of 783 ± 76 nM. The IC100 [7] was greater than 10 µM, the bioavailability (in vivo; F% (bioavailability)) was 0.9% and the C0 (in vivo; iv, 5 mg/kg) was 1710 ng/mL. The Tmax (in vivo; iv, 5 mg/kg) was 2 h, the Cmax (in vivo; iv, 5 mg/kg) was 2220 ng/mL and the MRT inf (in vivo; iv, 5 mg/kg) was 5.09 h. It also gave a half-life (in vivo; iv, 5 mg/kg, t1/2) of 3.52 h, a Tmax (in vivo; po, 10 mg/kg) of 4 h and a Cmax (in vivo; po, 10 mg/kg) of 30.1 ng/mL. For the same compound, the MRT inf (in vivo; po, 10 mg/kg) was 7.28 h, the half-life (in vivo; po, 10 mg/kg, t1/2) was 3.96 h and the half-life (in vivo; t1/2 (range PO and IV)) was 3.5 to 3.9 h. For the same compound, the “IC100 (range of IC100 values detected in the three cell lines)” value [8] was 0.3 to 1 µM, the IC50 [8] was 22.8 to 58 nM and the IC50 (Trypsin) was greater than 2000 nM. The IC50 (β-lactamase) was greater than 2000 nM, the CLobs [9, 16] was 0.00027 (mg/kg)/(ng/mL)/h and the Vss_obs [9, 16] was 0.0014 (mg/kg)/(ng/mL). The AUC0-t ([9]; iv, 5 mg/kg) was 18,074.45 ng/mL ∗ h, the AUC0-t ([9]; po, 10 mg/kg) was 318.78 ng/mL ∗ h and the Vz/F_obs ([9]; po, 10 mg/kg) was 0.1759 (mg/kg)/(ng/mL). For the same compound, the IC50 [10] was 58 ± 1.7 nM, the IC50 [11] was 19.3 ± 1.1 nM and the IC50 [12] was greater than 2000 nM. The IC50 [13] was 25.3 ± 0.6 nM.
Compound `O=C(O)c1cc(-c2ccc(/C=C3\SC(=S)N(CCc4ccccc4)C3=O)o2)ccc1F` [NBCoV3] has an IC50 [14] of 60.1 ± 8.5 nM, an IC50 [1] greater than 2000 nM and an IC50 ([2]; n=3, read-out: IC50) of 158 ± 14 nM. It also gave an IC50 [15] of 17.8 ± 4 nM, an IC50 ([4]; n=3, read-out: IC50) of 123 ± 17 nM and an IC50 ([5]; n=3, read-out: IC50) of 157 ± 12.5 nM. For the same compound, the IC50 [6] was 960 ± 57 nM, the IC100 [7] was greater than 10 µM and the “IC100 (range of IC100 values detected in the three cell lines)” value [8] was 0.5 to 1.2 µM. The IC50 [8] was 60.1 to 120 nM, the IC50 (Trypsin) was greater than 2000 nM and the IC50 (β-lactamase) was greater than 2000 nM. The IC50 [10] was 120 ± 5 nM, the IC50 ([11]; n=3, read-out: IC50) was 25.7 ± 0.6 nM and the IC50 [12] was greater than 2000 nM. For the same compound, the IC50 [13] was 64 ± 18 nM.
`Cc1ccc(-c2ccc(/C=C3\SC(=S)N(CCc4ccccc4)C3=O)o2)cc1C(=O)O` [NBCoV4] showed an IC50 [14] of 26 ± 1 nM, an IC50 [1] greater than 2000 nM and an IC50 ([2]; n=3, read-out: IC50) of 131 ± 6 nM. The IC50 [15] was 80 ± 2 nM, the IC50 ([4]; n=3, read-out: IC50) was 80 ± 18 nM and the IC50 ([5]; n=3, read-out: IC50) was 100 ± 13 nM. For the same compound, the IC50 [6] was 1620 ± 115 nM, the IC100 [7] was greater than 10 µM and the “IC100 (range of IC100 values detected in the three cell lines)” value [8] was 0.3 to 1 µM. For the same compound, the IC50 [8] was 26 to 73 nM, the IC50 (Trypsin) was greater than 2000 nM and the IC50 (β-lactamase) was greater than 2000 nM. The IC50 [10] was 73 ± 4.1 nM, the IC50 ([11]; n=3, read-out: IC50) was 54 ± 3.5 nM and the IC50 [12] was greater than 2000 nM. For the same compound, the IC50 [13] was 47.7 ± 16 nM.
With `Cc1c(C(=O)O)cccc1-c1ccc(/C=C2\SC(=S)N(CCc3ccccc3)C2=O)o1` [NBCoV5] the IC50 [14] was 1200 ± 240 nM, the IC50 [1] was greater than 2000 nM and the IC50 ([2]; n=3, read-out: IC50) was greater than 2000 nM. For the same compound, the IC50 [15] was 1850 ± 179 nM, the IC50 ([4]; n=3, read-out: IC50) was greater than 2000 nM and the MERS-CoV inhibitory activity (MERS-CoV pseudovirus) was “no MERS-CoV inhibitory activity”. It also gave an IC50 ([5]; n=3, read-out: IC50) greater than 2000 nM, an IC50 [6] greater than 2000 nM and an IC100 [7] greater than 10 µM. The “IC100 (range of IC100 values detected in the three cell lines)” value [8] was greater than 2 µM, the IC50 (Trypsin) was greater than 2000 nM and the IC50 (β-lactamase) was greater than 2000 nM. For the same compound, the IC50 [10] was greater than 2000 nM, the IC50 ([11]; n=3, read-out: IC50) was 1760 ± 330 nM and the IC50 [12] was greater than 2000 nM. The IC50 [13] was 1050 ± 252 nM.
In the case of `CCc1ccc(-c2ccc(/C=C3\SC(=S)N(CCc4ccccc4)C3=O)o2)cc1C(=O)O` [NBCoV6], the IC50 [14] is reported as 185 ± 5.8 nM, the IC50 [1] is reported as greater than 2000 nM and the IC50 ([2]; n=3, read-out: IC50) is reported as 569 ± 31 nM. For the same compound, the IC50 [15] was 175 ± 7 nM, the IC50 ([4]; n=3, read-out: IC50) was 945 ± 77 nM and the IC50 ([5]; n=3, read-out: IC50) was 867 ± 62 nM. The IC50 [6] was greater than 2000 nM, the IC100 [7] was greater than 10 µM and the “IC100 (range of IC100 values detected in the three cell lines)” value [8] was 1 to 3 µM. The IC50 [10] was 613 ± 72 nM, the IC50 ([11]; n=3, read-out: IC50) was 133 ± 9.5 nM and the IC50 [13] was 245 ± 5 nM.
With `O=C(O)c1cccc(-c2ccc(/C=C3\SC(=S)N(CCc4ccccc4)C3=O)o2)c1F` [NBCoV7] the IC50 [14] was 298 ± 60 nM, the IC50 [1] was greater than 2000 nM and the IC50 ([2]; n=3, read-out: IC50) was 933 ± 153 nM. For the same compound, the IC50 [15] was 111 ± 1.7 nM, the IC50 ([4]; n=3, read-out: IC50) was 927 ± 63.5 nM and the IC50 ([5]; n=3, read-out: IC50) was 271 ± 76 nM. For the same compound, the IC50 [6] was greater than 2000 nM, the IC100 [7] was greater than 10 µM and the “IC100 (range of IC100 values detected in the three cell lines)” value [8] was 1 to 3 µM. It also gave an IC50 [10] of 416 ± 25 nM, an IC50 ([11]; n=3, read-out: IC50) of 52 ± 8.9 nM and an IC50 [13] of 290 ± 57 nM.
Work on `O=C(O)c1cc(-c2ccc(/C=C3\SC(=S)N(CCc4ccccc4)C3=O)o2)ccc1Br` [NBCoV8] yielded an IC50 [14] of 65.8 ± 6.2 nM, an IC50 [1] greater than 2000 nM and an IC50 ([2]; n=3, read-out: IC50) of 509 ± 43 nM. The IC50 [15] was 128 ± 6.7 nM, the IC50 ([4]; n=3, read-out: IC50) was 559 ± 66 nM and the IC50 ([5]; n=3, read-out: IC50) was 700 ± 70 nM. For the same compound, the IC50 [6] was greater than 2000 nM, the IC100 [7] was greater than 10 µM and the “IC100 (range of IC100 values detected in the three cell lines)” value [8] was 1 to 2.5 µM. For the same compound, the IC50 [10] was 254 ± 27 nM, the IC50 ([11]; n=3, read-out: IC50) was 225 ± 26 nM and the IC50 [13] was 94 ± 9 nM.
